{"source": "paper PMC7400437", "about": "“Synthesis and Evaluation of the Antibacterial Activities of 13-Substituted Berberine Derivatives” (Antibiotics, 2020)", "key": {"E. coli": {"test_system": "E. coli", "experiment": "MIC, antimicrobial activity assay", "assay_type": "cell-based, Escherichia coli (ATCC 8739)", "conditions": "Escherichia coli; Table 1 first screening; read-out: Minimal Inhibitory Concentration (MIC) E. coli"}, "[1]": {"test_system": "bacterial membrane integrity", "experiment": "Bacterial membrane permeabilization assay (propidium iodide), strain not specified", "assay_type": "cell-based", "conditions": "data not shown", "description": "Membrane permeabilization by berberine derivatives was evaluated using the cell-impermeable DNA/RNA probe propidium iodide as previously explained. Logarithmic growing bacterial suspensions were prepared from overnight bacterial suspension by 1 in 10 dilution. After 3 h incubation at 37 °C, 200 rpm, bacterial suspensions were centrifuged for 5 min at 3000 rpm. Cell pellets were then resuspended in sterile PBS at about 10^9 cells/mL. Propidium iodide (Sigma Aldrich) was then added to the suspension at a final concentration of 60 µM. 100 µL of this suspension were then transferred into 96-well black plates (Dominique Dutscher) and exposed to increasing concentrations of berberine’s derivative (from 0 to 100 µM, 1:2 dilution). […] All steps of the assay were performed in aerobic condition except for H. pylori which was done in microaerobic condition generated with GasPak unit (Sigma Aldrich). Bacteria were incubated at 37 °C and the kinetics of fluorescence variations (excitation at 530 nm and emission at 590 nm) were then recorded over time using a Synergy Mx microplate reader (Biotek). Cetyl trimethylammonium bromide (CTAB) at 300 µM was used as positive control giving 100% permeabilization. Results were expressed in % of permeabilization. All experiments were done in triplicate."}, "S. aureus": {"test_system": "S. aureus", "experiment": "MIC, antimicrobial activity assay", "assay_type": "cell-based, Staphylococcus aureus (ATCC 6538P)", "conditions": "Staphylococcus aureus; Table 1 first screening; read-out: Minimal Inhibitory Concentration (MIC) S. aureus"}, "M. smegmatis": {"test_system": "M. smegmatis", "experiment": "microbe, parasite or virus in culture", "assay_type": "cell-based, Mycobacterium smegmatis (mc2155, ATCC 700084)", "conditions": "Mycolicibacterium smegmatis, 72 h, read-out: Minimal Inhibitory Concentration (MIC) M. smegmatis"}, "C. albicans": {"test_system": "C. albicans", "experiment": "MIC, antifungal activity assay", "assay_type": "cell-based, Candida albicans (DSM 10697)", "conditions": "Candida albicans; Table 1 first screening; 35 °C, 24 h; read-out: Minimal Inhibitory Concentration (MIC) C. albicans"}, "[2]": {"test_system": "selected relevant microorganisms", "experiment": "Antimicrobial activity, overall statement (active/inactive)", "assay_type": "cell-based"}, "P. aeruginosa": {"test_system": "P. aeruginosa", "experiment": "MIC, antimicrobial activity assay", "assay_type": "cell-based, Pseudomonas aeruginosa (ATCC 9027)", "conditions": "Pseudomonas aeruginosa; Table 1 first screening; read-out: Minimal Inhibitory Concentration (MIC) P. aeruginosa"}, "B. subtilis": {"test_system": "B. subtilis", "experiment": "MIC, antimicrobial activity assay", "assay_type": "cell-based, Bacillus subtilis (ATCC 6633)", "conditions": "Bacillus subtilis; Table 1 first screening; read-out: Minimal Inhibitory Concentration (MIC) B. subtilis"}, "[3]": {"test_system": "Caco2 (human intestinal epithelial cells)", "experiment": "Cytotoxic assay on human cells (resazurin)", "assay_type": "cell-based", "conditions": "Homo sapiens, Caco-2, 48 h, read-out: Inhibitory Concentration 50 (IC50) on cell viability, Caco2", "description": "(§1) The toxicity of berberine and berberine’s derivatives on human cells was evaluated using resazurin assay as previously described. Human cells used were BEAS (ATCC CRL-9609), Caco2 (ATCC HTB-37) and HepG2 (ATCC HB-8065) corresponding respectively to human airway epithelial cells, intestinal epithelial cells and liver cells. Cells were cultured in Dulbecco’s modified essential medium (DMEM) supplemented with 10% fetal bovine serum (FBS), 1% L-glutamine and 1% antibiotics (Thermo Fisher Scientific, Illkirch-Graffenstaden, France). Cells were routinely grown on 25 cm^2 flasks and maintained in a 5% CO2 incubator at 37 °C. For toxicity assay, cells were detached using trypsin–EDTA solution (Thermo Fisher Scientific), counted using Mallasez counting chamber and seeded into 96-well cell culture plates (Greiner bio-One, Dominique Dutscher, Brumath, France) at approximately 10,000 cells per well. The cells were left to grow for 48–72 h at 37 °C in a 5% CO2 incubator until they reached confluence. Media from wells was then aspirated and cells were treated with 100 µL of culture media containing increasing concentrations of berberine or berberine’s derivatives obtained by serial dilution (from 0 to 50 µM, 1:2 dilution), DMSO (0.5% DMSO final concentration) was used as negative control. After 48 h incubation at 37 °C in a 5% CO2 incubator, cell viability was evaluated using resazurin based in vitro toxicity assay kit (Sigma-Aldrich) following manufacturer’s instructions. Briefly, cell wells were emptied, and cells were treated with 100 µL of resazurin diluted 1:10 in sterile PBS containing calcium and magnesium (PBS^++, pH 7.4). After 4 h incubation at 37 °C, fluorescence intensity (excitation wavelength of 530 nm/emission wavelength of 590 nm) was measured using Synergy Mx microplate reader (Biotek). The fluorescence values were normalized by the controls (DMSO treated cells) and expressed as percent viability. The IC50 values of berberine and berberine’s derivatives on cell viability (i.e., the concentration of derivative causing a reduction of 50% of the cell viability) were calculated using GraphPad® Prism 7 software (San Diego, CA, USA). t-Test and two ways ANOVA analyses were used to address the significant differences between mean values with significance set at p < 0.05."}, "[4]": {"test_system": "BEAS (human airway epithelial cells)", "experiment": "Cytotoxic assay on human cells (resazurin)", "assay_type": "cell-based", "conditions": "Epithelial cell, 48 h, means +/−SD, read-out: Inhibitory Concentration 50 (IC50) on cell viability, BEAS", "description": "as §1"}, "[5]": {"test_system": "HepG2 (human liver cells)", "experiment": "Cytotoxic assay on human cells (resazurin)", "assay_type": "cell-based", "conditions": "HepG2, 48 h, read-out: Inhibitory Concentration 50 (IC50) on cell viability, HEPG2", "description": "as §1"}}, "data": [{"smiles": "COc1ccc2c(Cc3ccc(/C=C/C(=O)c4cc(NC(C)=O)ccc4O)cc3)c3[n+](cc2c1OC)CCc1cc2c(cc1-3)OCO2", "note": "[Compound 24, N-{3-[(2E)-3-{4-[(Berberin-13-yl)methyl]phenyl}prop-2-enoyl]-4-hydroxyphenyl}acetamide]", "values": [{"measurement": "MIC", "setting": "E. coli", "result": "> 100", "unit": "µM"}, {"measurement": "membrane permeabilization (inactive derivatives)", "setting": "[1]", "result": "low to no membrane permeabilization"}, {"measurement": "MIC", "setting": "S. aureus", "result": "50 to 100", "unit": "µM"}, {"measurement": "MIC", "setting": "M. smegmatis", "result": 25, "unit": "µM"}, {"measurement": "MIC", "setting": "C. albicans", "result": "> 100", "unit": "µM"}, {"measurement": "antimicrobial activity (active/inactive)", "setting": "[2]", "result": "No Activity"}, {"measurement": "MIC", "setting": "P. aeruginosa", "result": "> 100", "unit": "µM"}, {"measurement": "MIC", "setting": "B. subtilis", "result": 100, "unit": "µM"}]}, {"smiles": "COc1ccc2c(Cc3ccc(F)cc3)c3[n+](cc2c1OC)CCc1cc2c(cc1-3)OCO2", "note": "[Compound 6, 13-(4-Fluorobenzyl)Berberine]", "values": [{"measurement": "MIC", "setting": "E. coli", "result": "> 100", "unit": "µM"}, {"measurement": "MIC", "setting": "S. aureus", "result": "12.5 to 25", "unit": "µM"}, {"measurement": "IC50", "setting": "[3]", "result": "36.9 ± 4.3", "unit": "µM"}, {"measurement": "IC50", "setting": "[4]", "result": "> 50", "unit": "µM"}, {"measurement": "IC50", "setting": "[5]", "result": "> 50", "unit": "µM"}, {"measurement": "MIC", "setting": "M. smegmatis", "result": 25, "unit": "µM"}, {"measurement": "MIC", "setting": "C. albicans", "result": "> 100", "unit": "µM"}, {"measurement": "MIC", "setting": "P. aeruginosa", "result": "> 100", "unit": "µM"}, {"measurement": "melting point", "result": 238, "unit": "°C"}, {"measurement": "MIC", "setting": "B. subtilis", "result": 50, "unit": "µM"}]}, {"smiles": "CCOC(=O)Cc1c2[n+](cc3c(OC)c(OC)ccc13)CCc1cc3c(cc1-2)OCO3", "note": "[Compound 4, 13-(Acetic Acid Ethylester) Berberine]", "values": [{"measurement": "MIC", "setting": "E. coli", "result": "> 100", "unit": "µM"}, {"measurement": "MIC", "setting": "S. aureus", "result": "> 100", "unit": "µM"}, {"measurement": "MIC", "setting": "M. smegmatis", "result": 100, "unit": "µM"}, {"measurement": "MIC", "setting": "C. albicans", "result": "> 100", "unit": "µM"}, {"measurement": "MIC", "setting": "P. aeruginosa", "result": "> 100", "unit": "µM"}, {"measurement": "melting point", "result": 216, "unit": "°C"}, {"measurement": "MIC", "setting": "B. subtilis", "result": "> 100", "unit": "µM"}]}, {"smiles": "COc1cc(Cc2c3[n+](cc4c(OC)c(OC)ccc24)CCc2cc4c(cc2-3)OCO4)cc(OC)c1OC", "note": "[Compound 15, 13[(3,4,5-Trimethoxyphenyl)methyl]Berberine]", "values": [{"measurement": "MIC", "setting": "E. coli", "result": "> 100", "unit": "µM"}, {"measurement": "membrane permeabilization (inactive derivatives)", "setting": "[1]", "result": "low to no membrane permeabilization"}, {"measurement": "MIC", "setting": "S. aureus", "result": 100, "unit": "µM"}, {"measurement": "MIC", "setting": "M. smegmatis", "result": 50, "unit": "µM"}, {"measurement": "MIC", "setting": "C. albicans", "result": "> 100", "unit": "µM"}, {"measurement": "antimicrobial activity (active/inactive)", "setting": "[2]", "result": "No Activity"}, {"measurement": "MIC", "setting": "P. aeruginosa", "result": "> 100", "unit": "µM"}, {"measurement": "MIC", "setting": "B. subtilis", "result": "> 100", "unit": "µM"}]}]}
